{"source": "patent US20170037480A1", "about": "“HSF1 IN TUMOR STROMA” (Whitehead Institute for Biomedical Research, priority 2014, published 2017)", "key": {"D2A1 cancer cells": {"test_system": "D2A1 cancer cells", "experiment": "Growth of D2A1 cancer cells grown alone (no MEFs), Cell-Titer Glo luminescence", "format": "cell-based, mouse", "settings": "LY2109761 1 μM, 72 h, daily re-addition of inhibitor", "protocol": "Figs. S4A-S4F show additional results. (A) Tgfβ and Sdf1 mRNA levels are regulated by HSF1 in primary MEFs. The relative expression of Sdf1, Tgfβ1 and Tgfβ2 in three separate sets of WT or Hsf1 null MEFs (each derived from a different pregnancy) was measured by quantitative PCR. mRNA expression levels were normalized to the house keeping gene Gapdh. The experiment was repeated 3 times (each time with a different set of primary MEFs), in triplicate. Representative results are shown as the mean+/−SEM. *p<0.05, **p<0.01, ***p<0.001. […] WT or Hsf1 null immortalized MEFs were plated and treated with mitomycin C. D2A1 cells marked with dsRed were then seeded on top of the MEFs in the presence or absence of 10 ng/ml TGFβ1, 100 ng/ml SDF1 or a combination of both. After 96 h, cells were trypsinized and quantitated by flow cytometry. The percentage of cancer cells in the co-culture is presented. The experiment was repeated 3 times, in triplicate. […] Relative cell number was measured by luminescence using Cell-Titer Glo reagent (Promega). […] After growth for 96 h, cells were trypsinized and quantitated by flow cytometry. […] Relative levels of SMAD2 in WT immortalized MEFs (left two panels) or D2A1 cells (right two panels) were measured by immunoblotting lysates prepared from cells stably expressing shRNA hairpins targeting Smad2 (shSmad2) or GFP (shGFP). […]"}, "[1]": {"test_system": "D2A1 cells co-cultured with WT MEFs", "experiment": "Co-culture of dsRed D2A1 cancer cells on WT MEF feeder layer, cancer cells counted by flow cytometry", "format": "cell-based, mouse", "settings": "LY2109761, MEFs pretreated 30 minutes, 72 h, daily supplementation; p=0.008", "protocol": "(A) The relative expression of Sdf1, Tgfβ1 and Tgfβ2 in WT or Hsf1 null immortalized MEFs was measured by quantitative PCR. mRNA expression levels were normalized to the house keeping gene Gapdh. The mean of 3 independent experiments is shown. Error bars, SEM. *p<0.05, **p<0.01. (B-C) WT or Hsf1 null immortalized MEFs were plated and treated with mitomycin C as in FIG. 3A. D2A1 cells marked with dsRed were then seeded on top of the MEFs in the presence or absence of 10 ng/ml TGFβ1 and 100 ng/ml SDF1. After 96 h, cells were either visualized by fluorescent microscopy (B) or trypsinized and quantitated by flow cytometry (C). The percentage of cancer cells in co-culture is presented. The experiment was repeated 3 times, in triplicate. Representative results of one experiment are shown as the mean+/−SEM. *p<0.05. […] Cultures were continued for 72 h, with daily supplementation of LY2109761 (or not, as control), and then analyzed as in (C). […] Results are expressed as the mean relative number of cancer cells, normalized to the non-drug treated co-cultures with WT MEFs. […] (E) Immortalized WT MEFs stably expressing shRNA hairpins targeting Smad2 (shSmad2) or GFP (shGFP) were co-cultured with D2A1 cells, treated and analyzed as in (C). […] IPs were analyzed by qPCR with primers targeting potential heat shock elements in mouse Sdf1 and Tgfβ2. […]"}, "[2]": {"test_system": "D2A1 cells co-cultured with Hsf1 null MEFs", "experiment": "Co-culture of dsRed D2A1 cancer cells on Hsf1 null MEF feeder layer, cancer cells counted by flow cytometry", "format": "cell-based, mouse", "settings": "for cancer cell growth (percentage of cancer cells) in co-culture with Hsf1 null MEFs on addition of recombinant proteins: 10 ng/ml TGFβ1, 100 ng/ml SDF1, added once, 96 h", "protocol": "(A) The relative expression of Sdf1, Tgfβ1 and Tgfβ2 in WT or Hsf1 null immortalized MEFs was measured by quantitative PCR. mRNA expression levels were normalized to the house keeping gene Gapdh. The mean of 3 independent experiments is shown. Error bars, SEM. *p<0.05, **p<0.01. (B-C) WT or Hsf1 null immortalized MEFs were plated and treated with mitomycin C as in FIG. 3A. D2A1 cells marked with dsRed were then seeded on top of the MEFs in the presence or absence of 10 ng/ml TGFβ1 and 100 ng/ml SDF1. After 96 h, cells were either visualized by fluorescent microscopy (B) or trypsinized and quantitated by flow cytometry (C). The percentage of cancer cells in co-culture is presented. The experiment was repeated 3 times, in triplicate. Representative results of one experiment are shown as the mean+/−SEM. *p<0.05. (D) Immortalized WT or Hsf1 null mitomycin-treated MEFs were pretreated, or not, with LY2109761 for 30 minutes before D2A1 cells marked with dsRed were seeded on top. Cultures were continued for 72 h, with daily supplementation of LY2109761 (or not, as control), and then analyzed as in (C). The experiment was repeated 3 times, in triplicates. Results are expressed as the mean relative number of cancer cells, normalized to the non-drug treated co-cultures with WT MEFs. […] (E) Immortalized WT MEFs stably expressing shRNA hairpins targeting Smad2 (shSmad2) or GFP (shGFP) were co-cultured with D2A1 cells, treated and analyzed as in (C). […] IPs were analyzed by qPCR with primers targeting potential heat shock elements in mouse Sdf1 and Tgfβ2. […]\nFigs. S4A-S4F show additional results. […] The relative expression of Sdf1, Tgfβ1 and Tgfβ2 in three separate sets of WT or Hsf1 null MEFs (each derived from a different pregnancy) was measured by quantitative PCR. mRNA expression levels were normalized to the house keeping gene Gapdh. […] After 96 h, cells were trypsinized and quantitated by flow cytometry. […] Relative cell number was measured by luminescence using Cell-Titer Glo reagent (Promega). […] After growth for 96 h, cells were trypsinized and quantitated by flow cytometry. […]"}, "HSF1 [3]": {"test_system": "HSF1", "experiment": "Effect of RHT on expression of HSF1 stromal signature genes in Hsf1+/+ versus Hsf1-/- MEFs", "format": "cell-based, mouse", "settings": "reduced in treated Hsf1+/+ MEFs but not in Hsf1-/- MEFs", "source_text": "A combination of experimental and bioinformatic approaches was used to define a set of HSF1-regulated genes of particular use for assessing the level of HSF1 activity in tumor-associated stromal cells for purposes of cancer classification, diagnosis, prognosis, treatment-specific prediction, and treatment selection. The pipeline started with the Group 1 and Group 4 gene lists described above. As described above, these 871 genes have increased expression in Hsf1+/+ versus Hsf1−/−MEFs. These 871 genes map to 562 genes in the Finak, G. et al. dataset discussed above (GEO (GSE9014)). […] Its structure is depicted below.\nThe 562 genes that mapped to genes in the Finak dataset were tested to determine the effect of RHT on their expression in Hsf1+/+MEFs versus […] MEFs. […] A filter was applied to these genes to identify those that were differentially expressed in tumors in the Finak dataset with poor versus good outcomes."}, "HSF1 [4]": {"test_system": "HSF1", "settings": "recent chemical screening effort; cited from earlier work"}}, "note": "Entries after “also recorded” stand apart in the source; their conditions may differ.", "data": [{"molecule": "c1ccc(-c2nn3c(c2-c2ccnc4cc(OCCN5CCOCC5)ccc24)CCC3)nc1", "note": "[LY2109761]", "values": [{"measurement": "growth or survival of D2A1 cancer cells grown alone (relative cell number)", "setting": "D2A1 cancer cells", "value": "did not affect; also recorded: does not directly inhibit"}, {"measurement": "growth of D2A1 cancer cells in co-culture with WT MEFs (relative number of cancer cells)", "setting": "[1]", "value": "significantly reduce their growth"}, {"measurement": "growth of D2A1 cancer cells in co-culture with Hsf1 null MEFs (relative number of cancer cells)", "setting": "[2]; LY2109761, MEFs pretreated 30 minutes, 72 h, daily supplementation, p=0.1", "value": "A smaller effect, that did not reach statistical significance"}]}, {"molecule": "COc1ccc([C@@]23Oc4cc(OC)cc(OC)c4[C@]2(O)[C@H](O)[C@H](C(=O)N(C)OC)[C@H]3c2ccccc2)cc1", "note": "[Rohinitib]", "values": [{"measurement": "number of genes (of 562 tested) whose expression was suppressed in an HSF1-dependent fashion", "setting": "HSF1 [3]", "value": 95}, {"measurement": "inhibition of HSF1 activity", "setting": "HSF1 [4]", "value": "potent inhibitor"}]}, {"molecule": "SDF1: purified recombinant protein (R&D systems, 460-SD-010)", "values": [{"measurement": "cancer cell growth (percentage of cancer cells) in co-culture with Hsf1 null MEFs on addition of recombinant proteins", "setting": "[2]", "value": "Partial effects, that did not reach statistical significance"}]}, {"molecule": "TGFβ1: purified recombinant protein (R&D systems, 240-B-002)", "values": [{"measurement": "cancer cell growth (percentage of cancer cells) in co-culture with Hsf1 null MEFs on addition of recombinant proteins", "setting": "[2]", "value": "Partial effects, that did not reach statistical significance"}]}]}
